Test results: PMC3700907 (PLoS ONE, 2013)
Where “and” joins values, the source holds several entries; their conditions need not be identical. Identical values can stand only once. Like-named read-outs stand apart in the source and are kept apart here.

Legend:
[1] = assay type: physicochemical
[2] = target: mPrP(23–230) monomer (Mus musculus, UniProt P04925); settings: pH 6
[3] = assay type: physicochemical; settings: pH 3.7

mPrP(23–230) monomer, sequence (P04925 23-230 limits assumed): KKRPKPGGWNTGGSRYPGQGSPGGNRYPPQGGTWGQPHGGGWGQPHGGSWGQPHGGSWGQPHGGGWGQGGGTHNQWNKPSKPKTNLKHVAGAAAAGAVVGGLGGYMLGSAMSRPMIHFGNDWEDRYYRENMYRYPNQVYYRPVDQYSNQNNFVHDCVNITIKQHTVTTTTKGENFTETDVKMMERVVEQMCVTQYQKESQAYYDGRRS

Substance	monomer concentration remained in solution after fibrillization ([1]; pH 7.4)	average lag time of amyloid formation of mPrP(23–230) relative to unseeded reaction [2]	cross-seeding effect on mPrP(23–230) monomer [2]	average lag time for amyloidogenesis [3]	monomer concentration remained in solution after fibrillization ([1]; pH 3.7)
Ac-NLKHVAGAAAAGAVVGGLGG-NH2 [mPrP(107–126)]	12.4 µM and 11.1 µM and 6.6 µM	slightly prolonged	no seeding effect		
Ac-YMLGSAMSRPMIHFGND-NH2 [mPrP(127–143)]			induced immediately	hardly detectable	32.6 µM and 35.6 µM and 27.2 µM
